Data as given in patent US8524214B2, “Polyal drug conjugates comprising variable rate-releasing linkers” (Mersana Therapeutics, Inc., priority 2009, dated 2013).
Read-outs that look alike come from different tables or passages of the source.

Tests used:
[1] = system: HT-29 cells; experiment: Inhibitory effect on cell growth (MTT assay), HT-29 cells; format: cell-based
Procedure: Using HT-29 cells, the effect of the polyal-SN38 conjugates on cell growth was evaluated.
(§1) Cells are grown in McCoy's 5a medium with 1.5 mM L-glutamine supplemented with 10% FBS.

[2] = system: HCT116; experiment: Inhibitory effect on cell growth, HCT116 cells; format: cell-based, human
Procedure: as §1

[3] = pH 7.4
[4] = Homo sapiens, HT-29, HT29, growth inhibition 72 hours post treatment, MTT

Work on `CC[C@@]1(O)C(=O)OCc2c1cc1n(c2=O)Cc2cc3ccccc3nc2-1` [Camptothecin (CPT), Camptothecin] yielded an IC50 [1, 4] of 83 nM and an IC50 ([2]; Homo sapiens, HCT-116) of 23 nM.

Compound `CCc1c2c(nc3ccc(OC(=O)N4CCC(N5CCCCC5)CC4)cc13)-c1cc3c(c(=O)n1C2)COC(=O)[C@]3(O)CC` [Irinotecan] has an IC50 [1, 4] of 4430 nM and an IC50 ([2]; Homo sapiens, HCT-116) of 4650 nM.

`CCc1c2c(nc3ccc(O)cc13)-c1cc3c(c(=O)n1C2)COC(=O)[C@]3(O)CC` [SN38] gave an IC50 ([1]; read-out: HT29 IC50) of 25 nM and an IC50 [2] of 9 nM.

In the case of PHF-GA-Ala-SN38 [Conjugate S4], the “Release half-lives of SN38 conjugates, T½” value (shortened to “Release half-lives”) [3] is reported as 54.2 h.

With PHF-GA-Gly-SN38 [Conjugate S2] the “Release half-lives” value [3] was 18.5 h.

For PHF-SA-Ala-SN38 [Conjugate S3], the “Release half-lives” value [3] was 36.9 h.

With PHF-SA-Gly-SN38 [Conjugate S1] the “Release half-lives” value [3] was 2.0 h.
